Experimental data: the NIST ThermoML archive (doi:10.1021/je500804j)

Test: mn = molality of the nth substance listed, in mol/kg
Details: 101 kPa, Liquid, Alternating current cell with electrodes

CCCCCCCC[N+](C)(C)CCCCCC[N+](C)(C)CCCCCCCC.[Br-].[Br-] + O
Details	electrical conductivity [S/m]
313.15 K, m1 = 0.1169	1.553
318.15 K, m1 = 0.00396	0.09519
318.15 K, m1 = 0.00782	0.2003
318.15 K, m1 = 0.01158	0.2945
318.15 K, m1 = 0.01525	0.381
318.15 K, m1 = 0.01883	0.4611
318.15 K, m1 = 0.02233	0.5339
318.15 K, m1 = 0.02574	0.6047
318.15 K, m1 = 0.02907	0.6691
318.15 K, m1 = 0.03233	0.7314
318.15 K, m1 = 0.03551	0.7874
318.15 K, m1 = 0.03862	0.8418
318.15 K, m1 = 0.04166	0.8941
318.15 K, m1 = 0.04463	0.9453
318.15 K, m1 = 0.04754	0.9898
318.15 K, m1 = 0.05038	1.036
318.15 K, m1 = 0.05589	1.12
318.15 K, m1 = 0.05856	1.154
318.15 K, m1 = 0.06117	1.192
318.15 K, m1 = 0.06373	1.221
318.15 K, m1 = 0.06624	1.254
318.15 K, m1 = 0.06869	1.281
318.15 K, m1 = 0.0711	1.313
318.15 K, m1 = 0.07346	1.338
318.15 K, m1 = 0.07577	1.367
318.15 K, m1 = 0.07804	1.392
318.15 K, m1 = 0.08027	1.412
318.15 K, m1 = 0.08245	1.437
318.15 K, m1 = 0.08459	1.458
318.15 K, m1 = 0.0867	1.474
318.15 K, m1 = 0.08876	1.498
318.15 K, m1 = 0.09078	1.51
318.15 K, m1 = 0.09277	1.532
318.15 K, m1 = 0.09473	1.547
318.15 K, m1 = 0.09665	1.567
318.15 K, m1 = 0.09853	1.582
318.15 K, m1 = 0.1004	1.591
318.15 K, m1 = 0.1022	1.609
318.15 K, m1 = 0.104	1.626
318.15 K, m1 = 0.1057	1.636
318.15 K, m1 = 0.1075	1.647
318.15 K, m1 = 0.1092	1.659
318.15 K, m1 = 0.1109	1.674
318.15 K, m1 = 0.1125	1.687
318.15 K, m1 = 0.1141	1.699
318.15 K, m1 = 0.1157	1.713
318.15 K, m1 = 0.1173	1.724
318.15 K, m1 = 0.1188	1.732
318.15 K, m1 = 0.1203	1.749
318.15 K, m1 = 0.1218	1.761
323.15 K, m1 = 0.00396	0.123
323.15 K, m1 = 0.00782	0.2241
323.15 K, m1 = 0.01158	0.3183
323.15 K, m1 = 0.01526	0.4132
323.15 K, m1 = 0.01884	0.5013
323.15 K, m1 = 0.02233	0.5818
323.15 K, m1 = 0.02575	0.6582
323.15 K, m1 = 0.02908	0.7289
323.15 K, m1 = 0.03234	0.7956
323.15 K, m1 = 0.03552	0.8617
323.15 K, m1 = 0.03863	0.9197
323.15 K, m1 = 0.04167	0.9784
323.15 K, m1 = 0.04464	1.033
323.15 K, m1 = 0.04755	1.084
323.15 K, m1 = 0.0504	1.133
323.15 K, m1 = 0.05591	1.222
323.15 K, m1 = 0.05858	1.262
323.15 K, m1 = 0.06119	1.299
323.15 K, m1 = 0.06375	1.336
323.15 K, m1 = 0.06625	1.367
323.15 K, m1 = 0.06871	1.396
323.15 K, m1 = 0.07112	1.427
323.15 K, m1 = 0.07348	1.453
323.15 K, m1 = 0.07579	1.485
323.15 K, m1 = 0.07806	1.514
323.15 K, m1 = 0.08029	1.542
323.15 K, m1 = 0.08247	1.564
323.15 K, m1 = 0.08461	1.59
323.15 K, m1 = 0.08672	1.613
323.15 K, m1 = 0.08878	1.634
323.15 K, m1 = 0.09081	1.651
323.15 K, m1 = 0.0928	1.671
323.15 K, m1 = 0.09475	1.694
323.15 K, m1 = 0.09667	1.71
323.15 K, m1 = 0.09855	1.728
323.15 K, m1 = 0.1004	1.745
323.15 K, m1 = 0.1022	1.761
323.15 K, m1 = 0.104	1.776
323.15 K, m1 = 0.1058	1.788
323.15 K, m1 = 0.1075	1.804
323.15 K, m1 = 0.1092	1.816
323.15 K, m1 = 0.1109	1.832
323.15 K, m1 = 0.1125	1.841
323.15 K, m1 = 0.1141	1.854
323.15 K, m1 = 0.1157	1.866
323.15 K, m1 = 0.1173	1.881
323.15 K, m1 = 0.1188	1.893
323.15 K, m1 = 0.1203	1.901
323.15 K, m1 = 0.1218	1.917
